Reference: publication PMC4747340, “A new class of small molecule estrogen receptor-alpha antagonists that overcome anti-estrogen resistance” (Oncotarget, 2015)

How the values were obtained:
Assay type in all cases: cell-based
ER Arg394Ala = target: T1, ER Arg394Ala (Homo sapiens, UniProt P03372, R394A); experiment: ER mutation analysis, ERE-TK-Luc reporter in transfected MDA-MB-231 cells; conditions: MDA-MB-231 transfected with mutant ER, E2 10 nM, 24 hr
T1 construct: expressed in transfected cells; host or cells: MDA-MB-231
Text: (§1) B., C. Panels B and C show a comparison of the ER interaction of one of our original series of compounds (A7) (B) and one new compounds (48693-K/1) (C). ER is represented by gray ribbon and its residues interacting with the compounds are drawn with wireframe and labeled. […] The hydrogen bond interaction with ARG 394 is shown in green line. […] The cells were harvested for luciferase assays. Luciferase values are expressed as a percent of the +E2 vehicle control and are means ± SEMs of four wells. The data shown in panels D to G are representative of three independent experiments.
(§2) Subconfluent cells in 24-well dishes were transfected overnight with 0.25 μg of each indicated vector plus the ERE-TK-Luc reporter in serum-free DMEM containing Lipofectamine2000 (Life Technologies, Washington, DC). Total transfected DNA was kept constant by addition of control vector. The cells were washed, incubated in phenol red-free DMEM containing 5% charcoal-stripped serum (obtained from the Tissue Culture Shared Resource) (0.2 ml/well) ± E2 (10 nM) ± the indicated compound for 24-hr, and harvested for luciferase assays. For each assay condition was tested in quadrupicate. To monitor the transfection efficiency, cultures were co-transfected with plasmid pRSV-β-gal (Promega, Madison, WI) to visualize transfected cells by X-gal staining.

ER Glu323Ala = target: T2, ER Glu323Ala (Homo sapiens, UniProt P03372, E323A); experiment: as above; conditions: MDA-MB-231 transfected with mutant ER, E2 10 nM, 24 hr
T2 construct: expressed in transfected cells; host or cells: MDA-MB-231
Text: as §1, §2

ER Glu353Ala = target: T3, ER Glu353Ala (Homo sapiens, UniProt P03372, E353A); experiment: as above; conditions: MDA-MB-231 transfected with mutant ER, E2 10 nM, 24 hr
T3 construct: expressed in transfected cells; host or cells: MDA-MB-231
Text: as §1, §2

ER His356Ala = target: T4, ER His356Ala (Homo sapiens, UniProt P03372, H356A); experiment: as above; conditions: MDA-MB-231 transfected with mutant ER, E2 10 nM, 24 hr
T4 construct: expressed in transfected cells; host or cells: MDA-MB-231
Text: as §1, §2

ER Ile326Ala = target: T5, ER Ile326Ala (Homo sapiens, UniProt P03372, I326A); experiment: as above; conditions: MDA-MB-231 transfected with mutant ER, E2 10 nM, 24 hr
T5 construct: expressed in transfected cells; host or cells: MDA-MB-231
Text: as §1, §2

ER Ile386Ala = target: T6, ER Ile386Ala (Homo sapiens, UniProt P03372, I386A); experiment: as above; conditions: MDA-MB-231 transfected with mutant ER, E2 10 nM, 24 hr
T6 construct: expressed in transfected cells; host or cells: MDA-MB-231
Text: as §1, §2

ER Ile386Ala+Leu387Ala = target: T7, ER Ile386Ala+Leu387Ala (Homo sapiens, UniProt P03372, I386A/L387A); experiment: as above; conditions: MDA-MB-231 transfected with mutant ER, E2 10 nM, 24 hr
T7 construct: expressed in transfected cells; host or cells: MDA-MB-231
Text: as §1, §2

ER Leu327Ala = target: T8, ER Leu327Ala (Homo sapiens, UniProt P03372, L327A); experiment: as above; conditions: MDA-MB-231 transfected with mutant ER, E2 10 nM, 24 hr
T8 construct: expressed in transfected cells; host or cells: MDA-MB-231
Text: as §1, §2

ER Leu387Ala = target: T9, ER Leu387Ala (Homo sapiens, UniProt P03372, L387A); experiment: as above; conditions: MDA-MB-231 transfected with mutant ER, E2 10 nM, 24 hr
T9 construct: expressed in transfected cells; host or cells: MDA-MB-231
Text: as §1, §2

ER Lys449Ala = target: T10, ER Lys449Ala (Homo sapiens, UniProt P03372, K449A); experiment: as above; conditions: MDA-MB-231 transfected with mutant ER, E2 10 nM, 24 hr
T10 construct: expressed in transfected cells; host or cells: MDA-MB-231
Text: as §1, §2

ER Pro324Ala = target: T11, ER Pro324Ala (Homo sapiens, UniProt P03372, P324A); experiment: as above; conditions: MDA-MB-231 transfected with mutant ER, E2 10 nM, 24 hr
T11 construct: expressed in transfected cells; host or cells: MDA-MB-231
Text: as §1, §2

ER Pro325Ala = target: T12, ER Pro325Ala (Homo sapiens, UniProt P03372, P325A); experiment: as above; conditions: MDA-MB-231 transfected with mutant ER, E2 10 nM, 24 hr
T12 construct: expressed in transfected cells; host or cells: MDA-MB-231
Text: as §1, §2

ER Prol325Ala = target: T13, ER Prol325Ala (Homo sapiens, UniProt P03372, P325A); experiment: as above; conditions: MDA-MB-231 transfected with mutant ER, E2 10 nM, 24 hr; second row for residue 325
T13 construct: expressed in transfected cells; host or cells: MDA-MB-231
Text: as §1, §2

ER Trp393Ala = target: T14, ER Trp393Ala (Homo sapiens, UniProt P03372, W393A); experiment: as above; conditions: MDA-MB-231 transfected with mutant ER, E2 10 nM, 24 hr
T14 construct: expressed in transfected cells; host or cells: MDA-MB-231
Text: as §1, §2

Wild-type ER = target: T15, Wild-type ER (Homo sapiens, UniProt P03372); experiment: as above; conditions: MDA-MB-231 transfected with wtER, E2 10 nM, 24 hr
T15 construct: expressed in transfected cells; host or cells: MDA-MB-231
Text: as §1, §2

[1] = target: T16, estrogen receptor-alpha (ER) (Homo sapiens, UniProt P03372); experiment: constitutive ER activity, ERE-TK-Luc reporter, in anti-estrogen resistant LCC9 cells; design: LCC9 cells in 24-well dishes were transfected overnight with the ERE-TK-Luc reporter plasmid; endogenous in cells; host or cells: LCC9; conditions: compound plus Tam compared with compound alone, 24 hr
T16 sequence (P03372 1-595): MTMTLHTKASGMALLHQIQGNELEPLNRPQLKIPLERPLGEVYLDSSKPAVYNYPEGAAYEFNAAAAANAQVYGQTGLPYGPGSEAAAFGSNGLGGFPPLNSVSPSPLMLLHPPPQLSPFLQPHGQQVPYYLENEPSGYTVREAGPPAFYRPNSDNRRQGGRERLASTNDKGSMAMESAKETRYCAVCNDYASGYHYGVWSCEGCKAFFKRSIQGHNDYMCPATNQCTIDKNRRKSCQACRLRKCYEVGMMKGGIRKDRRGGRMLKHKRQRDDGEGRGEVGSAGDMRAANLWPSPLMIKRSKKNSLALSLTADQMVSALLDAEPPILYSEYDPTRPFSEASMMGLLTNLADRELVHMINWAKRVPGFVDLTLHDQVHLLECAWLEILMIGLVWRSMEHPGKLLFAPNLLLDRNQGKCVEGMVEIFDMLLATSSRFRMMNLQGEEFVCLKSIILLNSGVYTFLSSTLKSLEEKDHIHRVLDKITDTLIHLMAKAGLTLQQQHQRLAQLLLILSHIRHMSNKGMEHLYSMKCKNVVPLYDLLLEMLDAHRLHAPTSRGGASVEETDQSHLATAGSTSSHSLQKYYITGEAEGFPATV
Procedure: For MCF-7, luciferase activity is expressed as a fold-change relative to the no E2 control. For LCC9, luciferase activity is expressed relative to the control without the reporter present. Values plotted are means ± SEMs of four replicate wells. The data shown in each panel are representative of three independent experiments.
The cells were then treated with the indicated concentrations of the six bioactive compounds or vehicle only (DMSO) for 24-hr and assayed for luciferase activity. Luciferase activity is expressed as a percentage of the DMSO control. Values are means ± SEMs of four replicate wells. The data shown in each panel are representative of three independent experiments.
The cells were then harvested for luciferase assays. Luciferase activity was expressed as a fold-change relative to the no reporter control. Values plotted are means ± SEMs of four replicate wells. The data shown are representative of three independent experiments.
as §2

T5 sequence (P03372 whole entry I326A): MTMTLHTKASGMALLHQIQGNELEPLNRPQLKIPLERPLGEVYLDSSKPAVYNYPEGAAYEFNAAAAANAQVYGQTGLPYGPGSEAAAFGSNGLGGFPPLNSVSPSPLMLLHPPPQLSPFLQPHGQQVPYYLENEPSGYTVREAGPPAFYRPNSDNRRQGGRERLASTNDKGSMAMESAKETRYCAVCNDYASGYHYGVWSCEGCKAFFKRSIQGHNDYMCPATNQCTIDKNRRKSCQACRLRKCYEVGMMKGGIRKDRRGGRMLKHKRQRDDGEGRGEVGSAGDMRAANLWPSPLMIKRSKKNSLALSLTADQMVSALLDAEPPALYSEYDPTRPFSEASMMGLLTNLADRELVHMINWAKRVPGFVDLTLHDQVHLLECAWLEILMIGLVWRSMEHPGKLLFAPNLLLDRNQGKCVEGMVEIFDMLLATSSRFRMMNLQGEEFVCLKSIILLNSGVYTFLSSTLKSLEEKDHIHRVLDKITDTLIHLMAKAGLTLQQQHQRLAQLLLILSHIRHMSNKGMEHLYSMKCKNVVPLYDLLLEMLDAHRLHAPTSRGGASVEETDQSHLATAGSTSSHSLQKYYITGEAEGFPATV
T11 sequence (P03372 whole entry P324A): as the sequence (P03372 whole entry I326A) above, with P324A, A326I counted along it
T14 sequence (P03372 whole entry W393A): as the sequence (P03372 whole entry I326A) above, with A326I, W393A counted along it
T6 sequence (P03372 whole entry I386A): as the sequence (P03372 whole entry I326A) above, with A326I, I386A counted along it
T3 sequence (P03372 whole entry E353A): as the sequence (P03372 whole entry I326A) above, with A326I, E353A counted along it
T9 sequence (P03372 whole entry L387A): as the sequence (P03372 whole entry I326A) above, with A326I, L387A counted along it
T1 sequence (P03372 whole entry R394A): as the sequence (P03372 whole entry I326A) above, with A326I, R394A counted along it
T8 sequence (P03372 whole entry L327A): as the sequence (P03372 whole entry I326A) above, with A326I, L327A counted along it
T7 sequence (P03372 whole entry I386A/L387A): as the sequence (P03372 whole entry I326A) above, with A326I, I386A, L387A counted along it
T4 sequence (P03372 whole entry H356A): as the sequence (P03372 whole entry I326A) above, with A326I, H356A counted along it
T10 sequence (P03372 whole entry K449A): as the sequence (P03372 whole entry I326A) above, with A326I, K449A counted along it
T2 sequence (P03372 whole entry E323A): as the sequence (P03372 whole entry I326A) above, with E323A, A326I counted along it
T12 sequence (P03372 whole entry P325A): as the sequence (P03372 whole entry I326A) above, with P325A, A326I counted along it
T13 sequence (P03372 whole entry P325A): as the sequence (P03372 whole entry I326A) above, with P325A, A326I counted along it

Oc1cc(CN2COc3ccccc32)c(O)cc1CNC1CCCCC1 [A7, reference compound]
IC50 (ER Arg394Ala): 12 µM | IC50 (ER Glu323Ala): 13 µM | IC50 (ER Glu353Ala): 11 µM | IC50 (ER His356Ala): 11 µM | IC50 (ER Ile326Ala): 13 µM | IC50 (ER Ile386Ala): 2.5 µM | IC50 (ER Ile386Ala+Leu387Ala): 2.5 µM | IC50 (ER Leu327Ala): 12 µM | IC50 (ER Leu387Ala): 2.5 µM | IC50 (ER Lys449Ala): 2 µM | IC50 (ER Pro324Ala): 3 µM | IC50 (ER Pro325Ala): 7 µM | IC50 (ER Prol325Ala): 7 µM | IC50 (ER Trp393Ala): 12 µM | IC50 (Wild-type ER): 2.5 µM | ER activity in LCC9 cells, compound combined with Tam [1]: no more inhibition of ER activity than A7 alone
